Tested on: 966289-007-R4-J1-PDC complex spheroid viability
Experiment: Anticancer human tumor 966289-007-R4-J1-PDC patient-derived pancreatic adenocarcinoma cell line growth inhibition [GQUAD]
Conditions: for IC50: curve of first compound; for viability, T/C: stronger effect = lower value
Procedure, shortened: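 Multi-cell-type spheroids of tumor cells with HUVEC and mesenchymal stem cells, treated with drug combinations. Concentrations descend in half-log steps from near clinical Cmax, or from 10 microM where Cmax is unknown; viability read-out.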

[1] = second compound 0.0316 µM, first compound 0.0316 µM
[2] = second compound 0.0316 µM, first compound 0.1 µM
[3] = second compound 0.0316 µM, first compound 0.316 µM
[4] = second compound 0.0316 µM, first compound 1 µM
[5] = second compound 0.0316 µM, first compound 3.16 µM
[6] = second compound 0.0316 µM, first compound 10 µM
[7] = second compound 0.1 µM, first compound 0.0316 µM
[8] = second compound 0.1 µM, first compound 0.1 µM
[9] = second compound 0.1 µM, first compound 0.316 µM
[10] = second compound 0.1 µM, first compound 1 µM
[11] = second compound 0.1 µM, first compound 3.16 µM
[12] = second compound 0.1 µM, first compound 10 µM
[13] = second compound 0.316 µM, first compound 0.0316 µM
[14] = second compound 0.316 µM, first compound 0.1 µM
[15] = second compound 0.316 µM, first compound 0.316 µM
[16] = second compound 0.316 µM, first compound 1 µM
[17] = second compound 0.316 µM, first compound 3.16 µM
[18] = second compound 0.316 µM, first compound 10 µM
[19] = second compound 1 µM, first compound 0.0316 µM
[20] = second compound 1 µM, first compound 0.1 µM
[21] = second compound 1 µM, first compound 0.316 µM
[22] = second compound 1 µM, first compound 1 µM
[23] = second compound 1 µM, first compound 3.16 µM
[24] = second compound 1 µM, first compound 10 µM
[25] = second compound 3.16 µM, first compound 0.0316 µM
[26] = second compound 3.16 µM, first compound 0.1 µM
[27] = second compound 3.16 µM, first compound 0.316 µM
[28] = second compound 3.16 µM, first compound 1 µM
[29] = second compound 3.16 µM, first compound 3.16 µM
[30] = second compound 3.16 µM, first compound 10 µM
[31] = second compound 10 µM, first compound 0.0316 µM
[32] = second compound 10 µM, first compound 0.1 µM
[33] = second compound 10 µM, first compound 0.316 µM
[34] = second compound 10 µM, first compound 1 µM
[35] = second compound 10 µM, first compound 3.16 µM
[36] = second compound 10 µM, first compound 10 µM
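Also: spheroids exposed to the agents for seven days before readout.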
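For viability, T/C in this document: percent viability relative to DMSO vehicle control wells taken as 100%.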

## COc1ccc([C@@H](O)c2cc(-c3ncnc4cc(N5CCOCC5)ccc34)c(F)cc2Cl)nn1 + Cc1[nH]c2ccc(F)cc2c1-c1nc2c3cccnc3c3ncccc3c2[nH]1
Second compound 0.0316 µM
  IC50: > 10 µM
Second compound 0.1 µM
  IC50: > 10 µM
Second compound 0.316 µM
  IC50: > 10 µM
Second compound 1 µM
  IC50: > 10 µM
Second compound 3.16 µM
  IC50: > 10 µM
Second compound 10 µM
  IC50: > 10 µM
[1]
  viability, T/C: 106%
[2]
  viability, T/C: 94.7%
[3]
  viability, T/C: 108%
[4]
  viability, T/C: 104%
[5]
  viability, T/C: 112%
[6]
  viability, T/C: 85.6%
[7]
  viability, T/C: 107%
[8]
  viability, T/C: 101%
[9]
  viability, T/C: 106%
[10]
  viability, T/C: 104%
[11]
  viability, T/C: 111%
[12]
  viability, T/C: 87.8%
[13]
  viability, T/C: 94.5%
[14]
  viability, T/C: 102%
[15]
  viability, T/C: 104%
[16]
  viability, T/C: 108%
[17]
  viability, T/C: 111%
[18]
  viability, T/C: 92.9%
[19]
  viability, T/C: 91.3%
[20]
  viability, T/C: 98.4%
[21]
  viability, T/C: 108%
[22]
  viability, T/C: 106%
[23]
  viability, T/C: 109%
[24]
  viability, T/C: 87.8%
[25]
  viability, T/C: 100%
[26]
  viability, T/C: 103%
[27]
  viability, T/C: 109%
[28]
  viability, T/C: 108%
[29]
  viability, T/C: 103%
[30]
  viability, T/C: 70.7%
[31]
  viability, T/C: 103%
[32]
  viability, T/C: 103%
[33]
  viability, T/C: 106%
[34]
  viability, T/C: 102%
[35]
  viability, T/C: 105%
[36]
  viability, T/C: 56.3%

## Cc1cccc(N(C)C(=O)C2C(O)CCN2c2nc(C)cc(C(F)(F)F)c2C#N)c1 (centres undefined) + Cc1[nH]c2ccc(F)cc2c1-c1nc2c3cccnc3c3ncccc3c2[nH]1
Second compound 0.0316 µM
  IC50: > 10 µM
Second compound 0.1 µM
  IC50: > 10 µM
Second compound 0.316 µM
  IC50: > 10 µM
Second compound 1 µM
  IC50: > 10 µM
Second compound 3.16 µM
  IC50: > 10 µM
Second compound 10 µM
  IC50: > 10 µM
[1]
  viability, T/C: 109%
[2]
  viability, T/C: 90.5%
[3]
  viability, T/C: 108%
[4]
  viability, T/C: 90.6%
[5]
  viability, T/C: 106%
[6]
  viability, T/C: 104%
[7]
  viability, T/C: 109%
[8]
  viability, T/C: 98.6%
[9]
  viability, T/C: 97.2%
[10]
  viability, T/C: 101%
[11]
  viability, T/C: 106%
[12]
  viability, T/C: 103%
[13]
  viability, T/C: 97.6%
[14]
  viability, T/C: 104%
[15]
  viability, T/C: 98.1%
[16]
  viability, T/C: 104%
[17]
  viability, T/C: 99.7%
[18]
  viability, T/C: 106%
[19]
  viability, T/C: 102%
[20]
  viability, T/C: 96.8%
[21]
  viability, T/C: 98.7%
[22]
  viability, T/C: 106%
[23]
  viability, T/C: 97.2%
[24]
  viability, T/C: 110%
[25]
  viability, T/C: 104%
[26]
  viability, T/C: 104%
[27]
  viability, T/C: 110%
[28]
  viability, T/C: 107%
[29]
  viability, T/C: 113%
[30]
  viability, T/C: 114%
[31]
  viability, T/C: 107%
[32]
  viability, T/C: 102%
[33]
  viability, T/C: 110%
[34]
  viability, T/C: 104%
[35]
  viability, T/C: 103%
[36]
  viability, T/C: 113%

— PubChem BioAssay AID2060488 (Molecular Pharmacology Branch, DTP, NCI, 2025)
